Source: ChEMBL document CHEMBL5385844, “Discovery of novel imidazole chemotypes as isoform-selective JNK3 inhibitors for the treatment of Alzheimer's disease” (Eur J Med Chem, 2023)

Legend:
[1] = Oral bioavailability in Sprague-Dawley rat at 3 mg/kg measured upto 24 hrs by UPLC analysis; assay type: ADME, organism-based; details: in vivo
[2] = biological target: T1, Mitogen-activated protein kinase 8 (Homo sapiens, UniProt P45983); experiment: Inhibition of human JNK1 incubated for 40 mins in presence of ATP and [gamma33P-ATP] by scintillation counting method
T1 sequence (P45983 whole entry): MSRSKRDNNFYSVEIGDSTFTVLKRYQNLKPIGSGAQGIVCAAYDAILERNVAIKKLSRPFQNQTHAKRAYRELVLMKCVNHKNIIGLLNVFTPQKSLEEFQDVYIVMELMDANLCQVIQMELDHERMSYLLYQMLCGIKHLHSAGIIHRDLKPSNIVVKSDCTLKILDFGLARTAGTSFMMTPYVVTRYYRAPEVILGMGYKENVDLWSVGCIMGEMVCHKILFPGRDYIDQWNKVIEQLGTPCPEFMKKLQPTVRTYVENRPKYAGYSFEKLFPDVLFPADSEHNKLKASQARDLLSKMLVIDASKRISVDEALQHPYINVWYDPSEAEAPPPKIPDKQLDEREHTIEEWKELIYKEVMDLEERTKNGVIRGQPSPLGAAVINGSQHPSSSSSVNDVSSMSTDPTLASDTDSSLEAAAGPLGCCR

[3] = system: Mus musculus; experiment: Anti-alzheimer activity against APP/PS1 dE9 double transgenic mouse model assessed as escape latency time at 10 mg/kg, po administered 3 times/week for 1 month and measured after 27 days of treatment by Passive avoidance test (reference value: 18.5 +/- 2.3 sec); assay type: functional; details: time 27 day
[4] = Plasma concentration in Sprague-Dawley rat at 30 mg/kg, po measured at Tmax; assay type: ADME, organism-based
[5] = AUC in Sprague-Dawley rat at 3 mg/kg, po measured upto 24 hrs by UPLC analysis; assay type: ADME, organism-based; set-up: time < 24 hrs, dose 3 mg/kg, route po; details: in vivo
[6] = Efflux ratio of apparent permeability basolateral to apical side over apical to basolateral side in human Caco-2 cells at 10 uM incubated for 1 hr by LC-MS/MS analysis; assay type: ADME, cell-based
[7] = system: Mus musculus; experiment: Anti-alzheimer activity against APP/PS1 dE9 double transgenic mouse model assessed as escape latency time at 30 mg/kg, po administered 3 times/week for 1 month and measured after 27 days of treatment by Passive avoidance test (reference value: 18.5 +/- 2.3 sec); assay type: functional; details: time 27 day
[8] = Inhibition of human SAPK2a T106 mutant assessed as incorporation of 33P-ATP
[9] = system: Cortical neurone; experiment: Neuroprotective activity against Amyloid beta (1 to 42)-induced toxicity in rat cortical neuron assessed as cell viability at 20 uM measured after 48 hrs by MTT assay; assay type: functional; details: read-out: Activity
[10] = Toxicity in APP/PS1 mouse assessed as dead animal at 10 mg/kg, po treated 3 times/week for 1 month; assay type: organism-based; details: in vivo, 730 h, time 1 months
[11] = Permeability of the compound by PAMPA-BBB assay; assay type: ADME; details: read-out: permeability
[12] = Half life in Sprague-Dawley rat at 1 mg/kg, iv measured upto 24 hrs by UPLC analysis; assay type: ADME, organism-based; details: in vivo
[13] = Cmax in Sprague-Dawley rat at 3 mg/kg, po measured upto 24 hrs by UPLC analysis; assay type: ADME, organism-based; set-up: dose 3 mg/kg, time < 24 hrs, route po; details: in vivo
[14] = biological target: T2, Dual specificity mitogen-activated protein kinase kinase 4 (Homo sapiens, UniProt P45985); experiment: Inhibition of MKK4 (unknown origin) assessed as incorporation of 33P-ATP
T2 sequence (P45985 whole entry): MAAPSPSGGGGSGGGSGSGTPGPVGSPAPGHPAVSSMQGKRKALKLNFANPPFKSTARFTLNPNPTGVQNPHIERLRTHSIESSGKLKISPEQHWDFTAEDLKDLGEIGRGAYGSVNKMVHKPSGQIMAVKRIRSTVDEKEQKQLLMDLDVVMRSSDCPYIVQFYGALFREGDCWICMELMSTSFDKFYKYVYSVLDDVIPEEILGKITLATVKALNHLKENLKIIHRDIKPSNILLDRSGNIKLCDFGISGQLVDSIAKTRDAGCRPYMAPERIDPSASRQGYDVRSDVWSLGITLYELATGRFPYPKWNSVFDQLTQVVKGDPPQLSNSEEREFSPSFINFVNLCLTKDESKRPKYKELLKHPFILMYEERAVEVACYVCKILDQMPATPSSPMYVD

[15] = system: Mus musculus; experiment: Anti-alzheimer activity against homozygous 3 x Tg mouse model assessed as time spent in platform quadrant at 60 mg/kg, po administered daily for 2 months and measured after 27 days of treatment by Morris water maze test (reference value: 15.68 +/- 1.65 sec); assay type: functional; details: 1460 h
[16] = Toxicity in APP/PS1 mouse assessed as abnormal symptoms at 30 mg/kg, po treated 3 times/week for 1 month; assay type: organism-based; details: in vivo, 730 h, time 1 months
[17] = Toxicity in APP/PS1 mouse assessed as weight change at 10 mg/kg, po treated 3 times/week for 1 month; assay type: organism-based; details: in vivo, 730 h, time 1 months
[18] = Toxicity in APP/PS1 mouse assessed as abnormal symptoms at 10 mg/kg, po treated 3 times/week for 1 month; assay type: organism-based; details: in vivo, 730 h, time 1 months
[19] = system: Mus musculus; experiment: Anti-alzheimer activity against APP/PS1 dE9 double transgenic mouse model assessed as time spent in platform quadrant at 10 mg/kg, po administered 3 times/week for 1 month and measured after 40 to 45 days of treatment by Morris water maze test (reference value: 11.06 +/- 1.53 %); assay type: functional; details: time 27 day
[20] = system: Cortical neurone; experiment: Neuroprotective activity against Amyloid beta (1 to 42)-induced toxicity in rat cortical neuron assessed as cell viability at 20 uM measured after 24 hrs by MTT assay; assay type: functional; details: read-out: Activity
[21] = system: Mus musculus; experiment: Anti-alzheimer activity against homozygous 3 x Tg mouse model assessed as escape latency time at 30 mg/kg, po administered daily for 2 months and measured after 60 days of treatment by Passive avoidance test (reference value: 43.44 +/- 7.35 sec); assay type: functional; details: 1460 h
[22] = system: Cortical neurone; experiment: Neuroprotective activity against Amyloid beta (1 to 42)-induced toxicity in rat cortical neuron assessed as cell viability measured after 24 to 48 hrs by MTT assay; assay type: functional, cell-based; details: time 24-48 hrs
[23] = biological target: Glycogen synthase kinase-3 beta (Homo sapiens, UniProt P49841); experiment: Inhibition of human GSK3beta assessed as incorporation of 33P-ATP
Chain of Glycogen synthase kinase-3 beta (P49841 whole entry): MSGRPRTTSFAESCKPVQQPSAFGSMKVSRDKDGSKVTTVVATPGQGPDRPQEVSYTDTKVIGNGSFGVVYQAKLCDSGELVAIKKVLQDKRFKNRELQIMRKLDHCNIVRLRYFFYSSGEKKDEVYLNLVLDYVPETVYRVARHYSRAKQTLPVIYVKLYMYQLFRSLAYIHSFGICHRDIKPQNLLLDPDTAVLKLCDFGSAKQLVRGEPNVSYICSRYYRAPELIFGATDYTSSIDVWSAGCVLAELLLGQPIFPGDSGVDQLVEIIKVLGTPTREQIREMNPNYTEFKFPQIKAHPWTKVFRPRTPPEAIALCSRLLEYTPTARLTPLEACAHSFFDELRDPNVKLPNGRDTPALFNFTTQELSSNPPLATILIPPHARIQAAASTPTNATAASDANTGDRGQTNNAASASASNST

[24] = system: Mus musculus; experiment: Anti-alzheimer activity against homozygous 3 x Tg mouse model assessed as spontaneous alteration at 30 mg/kg, po administered daily for 2 months and measured after 57 days of treatment by Y-maze test (reference value: 46.81 +/- 2.76%); assay type: functional; details: 1460 h
[25] = biological target: Mitogen-activated protein kinase 14 (Homo sapiens, UniProt Q16539); experiment: Inhibition of human SAPK2a assessed as incorporation of 33P-ATP
Chain of Mitogen-activated protein kinase 14 (Q16539 whole entry): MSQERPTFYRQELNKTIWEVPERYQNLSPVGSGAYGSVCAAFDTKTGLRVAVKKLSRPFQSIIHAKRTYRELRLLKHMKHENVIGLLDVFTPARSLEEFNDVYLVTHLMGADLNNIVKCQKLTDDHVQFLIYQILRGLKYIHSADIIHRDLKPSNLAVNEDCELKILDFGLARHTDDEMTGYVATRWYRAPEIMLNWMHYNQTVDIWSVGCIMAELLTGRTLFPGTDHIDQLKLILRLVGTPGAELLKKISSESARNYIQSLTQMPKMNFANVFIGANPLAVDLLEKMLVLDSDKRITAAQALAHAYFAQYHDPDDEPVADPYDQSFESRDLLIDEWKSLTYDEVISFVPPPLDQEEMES

[26] = biological target: Mitogen-activated protein kinase 10 (Rattus norvegicus) (UniProt P49187); experiment: Inhibition of JNK3 in Amyloid beta (1 to 42)-induced c-Jun phosphorylation in primary rat cortex neuron assessed as decrease in c-Jun phosphorylation incubated for 24 hrs by Western blot analysis; assay type: cell-based; details: Primary cortical neuron, dose 10-20 µM
Chain of Mitogen-activated protein kinase 10 (Rattus norvegicus) (P49187 whole entry): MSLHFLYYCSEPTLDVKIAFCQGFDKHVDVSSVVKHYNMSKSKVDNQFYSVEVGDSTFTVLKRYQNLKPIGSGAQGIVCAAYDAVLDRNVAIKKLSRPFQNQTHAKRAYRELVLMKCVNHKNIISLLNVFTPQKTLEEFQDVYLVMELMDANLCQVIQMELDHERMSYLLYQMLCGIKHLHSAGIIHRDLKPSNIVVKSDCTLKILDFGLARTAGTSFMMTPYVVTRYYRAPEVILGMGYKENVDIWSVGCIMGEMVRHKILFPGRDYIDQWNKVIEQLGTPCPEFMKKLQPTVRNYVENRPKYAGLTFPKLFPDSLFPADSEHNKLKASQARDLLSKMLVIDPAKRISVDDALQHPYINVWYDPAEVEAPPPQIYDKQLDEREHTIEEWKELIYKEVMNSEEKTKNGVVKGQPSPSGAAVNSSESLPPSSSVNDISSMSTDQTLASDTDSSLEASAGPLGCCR

[27] = system: Mus musculus; experiment: Anti-alzheimer activity against APP/PS1 dE9 double transgenic mouse model assessed as time spent in platform quadrant at 30 mg/kg, po administered 3 times/week for 1 month and measured after 40 to 45 days of treatment by Morris water maze test (reference value: 11.06 +/- 1.53 %); assay type: functional; details: time 27 day
[28] = biological target: T1, Mitogen-activated protein kinase 8; experiment: Inhibition of human JNK1alpha1 assessed as incorporation of 33P-ATP
[29] = Brain to Plasma ratio in Sprague-Dawley rat at 30 mg/kg, po measured at Tmax; assay type: ADME, organism-based; details: read-out: BPR
[30] = system: Mus musculus; experiment: Anti-alzheimer activity against homozygous 3 x Tg mouse model assessed as escape latency time at 60 mg/kg, po administered daily for 2 months and measured after 60 days of treatment by Passive avoidance test (reference value: 43.44 +/- 7.35 sec); assay type: functional; details: 1460 h

N#CCc1cnc(-c2ccc3ccccc3c2)n1-c1ccnc(N[C@H]2CCCN(C(=O)C3CC3)C2)n1
bioavailability [1]: 15.7% | IC50 [2]: 298 nM | Time [3]: 31.7 s | Cmax [4]: 1080 ng/mL | AUC at 24 h [5]: 338 ng·h/mL | efflux ratio at 1 h, 10 µM [6]: 1.92 | Time [7]: 49.5 s | IC50 [8]: 1190 nM | viability at 20 µM [9]: 46.8% | Activity [10]: Non-Toxic | Papp [11]: 28.5 ×10⁻⁶ cm/s | half-life [12]: 13.2 min | Cmax [13]: 378 ng/mL | IC50 [14]: 970 nM | Time [15]: 15.55 s | Activity [16]: Non-Toxic | Activity [17]: Non-Toxic | Activity [18]: Non-Toxic | Time [19]: 10.53 s | viability at 20 µM [20]: 72.6% | Time [21]: 54.09 s | Activity [22]: Dose-Dependent Effect | IC50 [23]: 11700 nM | Activity [24]: 50.97% | IC50 [25]: 310 nM | Activity [26]: Dose-Dependent Effect | Time [27]: 15.06 s | IC50 [28]: 860 nM | Kp [29]: 0.02 | Time [30]: 59.82 s
